Read-outs that look alike come from different tables or passages of the source.
What was measured:
[1] = target: T1, catalytic domain of PDE7A1 (aa. 130-482) (Homo sapiens, UniProt Q13946); experiment: PDE inhibitor test, PDE7A1 (3H-cAMP hydrolysis); type: biochemical; settings: substrate at 1/10 of KM; six inhibitor concentrations; duplicate; read-out: Inhibitor data of PDE7A1 (CI50)
T1 construct: The catalytic domain of PDE7A1 (aá. 130-482); made in house; host or cells: E. coli BL21

[2] = test system: clone of Th2 lymphocytes (D10.G4.1)
Description: Cell toxicity tests were carried out on a clone of Th2 lymphocytes (D10.G4.1) through flow cytometry using Propidium Iodide in order to determine cell death.
After this time, the cells were washed and incubated with 5 μg/ml of Propidium Iodide during 1 min. The samples treated in this way were analysed by cytometry using BD FACSCanto™ equipment.

[3] = target: T2, complete enzyme of PDE4D2 (aa. 1-507) (Homo sapiens, UniProt Q08499); experiment: PDE inhibitor test, PDE4D2 (3H-cAMP hydrolysis); type: biochemical; settings: substrate at 1/10 of KM; six inhibitor concentrations; duplicate; read-out: Inhibitor data of PDE4D2 (CI50)
T2 construct: the complete enzyme of PDE4D2 (aa. 1-507); made in house; host or cells: E. coli BL21
Description: The catalytic domain of PDE7A1 (aá. 130-482) and the complete enzyme of PDE4D2 (aa. 1-507) were subcloned in pET vectors, overexpressed in E. coli strain BL21, and purified to homogeneity as described in the bibliography (Wang, H., Liu, Y., Chen, Y., Robinson, H., and Ke, H. Multiple elements jointly determine inhibitor selectivity of cyclic nucleotide phosphodiesterases 4 and 7. J. Biol. Chem. 2005, 280, 30949-30955). The enzymatic activities of PDE7A1 and PDE4D2 were tested through incubation of the enzymes with 100 μL of a reaction mixture that contained 50 mM Tris.HCl (pH 8.5), 50 mM MgCl2, 5 mM DTT, and ^3H-cAMP (20000 cpm per test, Sigma-Aldrich) at room temperature during 10 minutes. The reactions were concluded by adding 200 μL 0.2 M ZnSO4 when 20-50% of the cAMP was hydrolysed. The product of the reaction, ^3H-AMP, was precipitated by adding 200 μL 0.25 M Ba(OH)2 (Sigma-Aldrich), while the unreacted ^3H-AMPc remained in the supernatant. Radioactivity of the supernatant was measured with a mixture of scintillation liquid (ScintiSafe PlusTM 50%, Fisher Scientific) using the counter LKB RackBeta 1214.
For inhibitor measurements, six concentrations of inhibitors were used in the presence of a substrate concentration equivalent to 1/10 of the KM and the enzyme concentration that hydrolyses 50% of the substrate. […] All experiments were carried out in duplicate.

[4] = test system: T-lymphocytes; experiment: Study of intracellular cAMP levels (cAMP Biotrak Enzymeimmunoassay); type: cell-based; settings: inhibitor alone (FIG. 5)
Description: PDE inhibition has the direct effect of increasing cAMP, since their degradation is prevented. In order to verify this effect on the cell system of T-lymphocytes two compounds of formula (I) of the invention were chosen, specifically: TC 3.6 and TC 3.14 and cAMP concentration was measured using the cAMP Biotrak Enzymeimmunoassay System of Amersham Biosciences kit.

[5] = D10.G4.1 cells, 1×10^6 cells/ml, 48 h

T2 sequence (Q08499 303-809): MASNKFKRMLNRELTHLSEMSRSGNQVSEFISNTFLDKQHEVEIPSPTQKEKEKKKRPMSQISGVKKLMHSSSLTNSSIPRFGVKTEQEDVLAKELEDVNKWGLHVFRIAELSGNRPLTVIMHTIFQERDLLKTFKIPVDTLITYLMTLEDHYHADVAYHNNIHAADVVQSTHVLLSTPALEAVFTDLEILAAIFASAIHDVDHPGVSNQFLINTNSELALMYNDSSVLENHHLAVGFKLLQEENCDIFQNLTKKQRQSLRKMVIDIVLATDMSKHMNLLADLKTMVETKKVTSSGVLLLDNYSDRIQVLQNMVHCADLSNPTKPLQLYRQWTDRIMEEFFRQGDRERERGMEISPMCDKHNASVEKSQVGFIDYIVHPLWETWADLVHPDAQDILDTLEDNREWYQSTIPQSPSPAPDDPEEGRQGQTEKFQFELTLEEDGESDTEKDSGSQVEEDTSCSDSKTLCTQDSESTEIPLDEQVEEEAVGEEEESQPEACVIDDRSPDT
T1 sequence (Q13946 130-482): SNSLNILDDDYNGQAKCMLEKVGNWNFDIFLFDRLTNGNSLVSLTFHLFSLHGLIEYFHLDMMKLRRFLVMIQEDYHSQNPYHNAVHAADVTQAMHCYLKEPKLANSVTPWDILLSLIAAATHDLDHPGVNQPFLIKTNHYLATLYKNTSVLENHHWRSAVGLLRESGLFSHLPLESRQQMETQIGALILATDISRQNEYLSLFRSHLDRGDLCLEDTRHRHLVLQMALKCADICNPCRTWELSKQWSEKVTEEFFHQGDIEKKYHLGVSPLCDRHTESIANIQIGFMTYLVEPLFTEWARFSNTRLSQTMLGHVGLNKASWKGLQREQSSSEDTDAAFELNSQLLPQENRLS

Molecule | IC50 [1] | maximum concentration at which more than 80% cellular viability was maintained in comparison to the control of cells without inhibitor ([2]; mouse, 48 h) | further results
Fc1ccc(-n2c(=S)[nH]c3ccccc3c2=S)c(F)c1F [TC2.45, 3-(2,3,4-Trifluorophenyl)-2,4-dithioxo-1,2,3,4-tetrahydroquinazoline] | > 1 µM | – | –
CSc1nc2ccccc2c(=S)n1-c1ccccc1Br [TC3.13, 3-(2-bromophenyl)-2-methylthio-4-thioxo-3,4-dihydroquinazoline] | 0.1 to 1 µM | 10 µM | –
CSc1nc2ccccc2c(=S)n1-c1c(F)cccc1F [TC3.1, 3-(2,6-difluorophenyl)-2-methylthio-4-thioxo-3,4-dihydroquinazoline] | 0.1 to 1 µM | 10 µM | –
CSc1nc2ccc(Br)cc2c(=O)n1-c1ccccc1 [TC3.47A, 6-Bromo-3-phenyl-2-methylthio-4-oxo-3,4-dihydroquinazoline] | > 1 µM | – | –
CSc1nc2ccc(Br)cc2c(=O)n1-c1c(F)cccc1F [TC3.36, 6-Bromo-3-(2,6-difluorophenyl)-2-methylthio-4-oxo-3,4-dihydroquinazoline] | 0.24 ± 0.03 µM | 10 µM | IC50 [3]: 4.5 ± 0.1 µM
Cc1cccc2c(=O)n(-c3ccccc3Br)c(=S)[nH]c12 [TC3.14, 3-(2-Bromophenyl)-8-methyl-4-oxo-2-thioxo-1,2,3,4-tetrahydroquinazoline] | 1.7 ± 0.1 µM | 600 µM | amount of intracellular cAMP in relation to the control [4]: increased in a statistically significant manner; cell toxicity (in words) [2]: most moderate toxicity; IC50 [3]: 34 ± 5 µM
CSc1nc2ccccc2c(=S)n1-c1ccccc1 [TC3.9, 3-Phenyl-2-methylthio-4-thioxo-3,4-dihydroquinazoline] | 0.84 ± 0.01 µM | 100 µM | IC50 [3]: 8 ± 1.2 µM
O=c1c2cc(Br)ccc2[nH]c(=S)n1-c1c(F)cccc1F [TC3.29, 6-Bromo-3-(2,6-difluorophenyl)-4-oxo-2-thioxo-1,2,3,4-tetrahydroquinazoline] | > 10 µM | – | –
CSc1nc2c(C)cccc2c(=O)n1-c1ccccc1Br [TC3.22, 3-(2-Bromophenyl)-8-methyl-2-methylthio-4-oxo-3,4-dihydroquinazoline] | 0.27 ± 0.02 µM | 5 µM | IC50 [3]: 1.1 ± 0.2 µM
CSc1nc2ccc(Br)cc2c(=O)n1-c1ccc(F)c(F)c1F [TC3.32, 6-Bromo-3-(2,3,4-trifluorophenyl)-2-methylthio-4-oxo-3,4-dihydroquinazoline] | 2.1 ± 0.1 µM | 100 µM | –
Cc1cccc2c(=O)n(-c3c(F)cccc3F)c(=S)[nH]c12 [TC3.16, 3-(2,6-Difluorophenyl)-8-methyl-4-oxo-2-thioxo-1,2,3,4-tetrahydroquinazoline] | > 1 µM | – | –
CSc1nc2c(C)cccc2c(=O)n1-c1ccccc1 [TC3.15b, 3-Phenyl-8-methyl-2-methylthio-4-oxo-3,4-dihydroquinazoline] | ~1 µM | 600 µM | cell toxicity (in words) [2]: most moderate toxicity
Cc1cccc2c(=O)n(-c3ccc(F)c(F)c3F)c(=S)[nH]c12 [TC3.17, 3-(2,3,4-Trifluorophenyl)-8-methyl-4-oxo-2-thioxo-1,2,3,4-tetrahydroquinazoline] | > 10 µM | – | –
COc1ccc(C2CNC(=O)C2)cc1OC1CCCC1 (stereo not drawn) [Rolipram, reference compound] | – | – | maximum concentration at which more than 80% cellular viability was maintained in comparison to the control of cells without inhibitor [2, 5]: >1000 µM
CSc1nc2ccccc2c(=S)n1-c1ccc(F)c(F)c1F [TC2.51, 3-(2,3,4-trifluorophenyl)-2-methylthio-4-thioxo-3,4-dihydroquinazoline] | > 1 µM | – | –
3-(2,6-difluorophenyl)-2-methylthio-4-thioxo-3,4-dihydroquinazoline [TC2.43] | – | – | maximum concentration at which more than 80% cellular viability was maintained in comparison to the control of cells without inhibitor [2, 5]: 5 µM
O=c1c2cc(Br)ccc2[nH]c(=S)n1-c1ccccc1Br [TC3.28, 6-Bromo-3-(2-bromophenyl)-4-oxo-2-thioxo-1,2,3,4-tetrahydroquinazoline] | ~10 µM | – | –
O=c1c2cc(Br)ccc2[nH]c(=S)n1-c1ccc(F)c(F)c1F [TC3.30, 6-Bromo-3-(2,3,4-trifluorophenyl)-4-oxo-2-thioxo-1,2,3,4-tetrahydroquinazoline] | > 10 µM | – | –
Fc1cccc(F)c1-n1c(=S)[nH]c2ccccc2c1=S [TC2.49, 3-(2,6-Difluorophenyl)-2,4-dithioxo-1,2,3,4-tetrahydroquinazoline] | ~1 µM | 50 µM | –
Cc1ccc([N+](=O)[O-])cc1S(=O)(=O)N(C)C [BRL50481, 3-(N,N-dimethylsulfonamide)-4-methyl-nitrobenzene, reference compound] | – | – | maximum concentration at which more than 80% cellular viability was maintained in comparison to the control of cells without inhibitor [2, 5]: >1000 µM
S=c1[nH]c2ccccc2c(=S)n1-c1ccccc1 [TC3.6, 3-Phenyl-2,4-dithioxo-1,2,3,4-tetrahydroquinazoline] | 1.04 ± 0.08 µM | 1000 µM | amount of intracellular cAMP in relation to the control [4]: increased in a statistically significant manner; cell toxicity (in words) ([2]; D10.G4.1 cells, 48 h, among the compounds of new synthesis): most moderate toxicity; IC50 [3]: 5.7 ± 0.03 µM
CSc1nc2c(C)cccc2c(=O)n1-c1c(F)cccc1F [TC3.23, 3-(2,6-Difluorophenyl)-8-methyl-2-methylthio-4-oxo-3,4-dihydroquinazoline] | 0.13 ± 0.02 µM | 10 µM | IC50 [3]: 1.4 ± 0.2 µM
CSc1nc2c(C)cccc2c(=O)n1-c1ccc(F)c(F)c1F [TC3.24, 3-(2,3,4-Trifluorophenyl)-8-methyl-2-methylthio-4-oxo-3,4-dihydroquinazoline] | > 1 µM | – | –
CSc1nc2ccc(Br)cc2c(=O)n1-c1ccccc1Br [TC3.35, 6-Bromo-3-(2-bromophenyl)-2-methylthio-4-oxo-3,4-dihydroquinazoline] | 1.86 ± 0.18 µM | 10 µM | –
O=c1c2cc(Br)ccc2[nH]c(=S)n1-c1ccccc1 [TC2.30A, 6-Bromo-3-phenyl-4-oxo-2-thioxo-1,2,3,4-tetrahydroquinazoline] | > 10 µM | – | –

— patent US20100152213A1, “COMPOUND THAT IS A DUAL INHIBITOR OF ENZYMES PDE7 AND/OR PDE4, PHARMACEUTICAL COMPOSITIONS AND USES THEREOF” (priority 2007, published 2010)
